One test deals with Lactobacterium. Briefly: Stimulation of growth: enumeration of lactobacilli in vitro in human faecal homogenate / WC broth. It counts as cell-based, Lactobacillus spp. The conditions noted are these: incubated up to 24 hours. On the procedure: (§1) The stimulation of growth of micro-organisms has been studied by enumerating bifidobacterium and lactobacilli in vitro in the presence of various test substances. More specifically, aliquots (1 mL) of human faecal homogenates (10 g per 100 mL diluent) were added to diluted WC broth (diluted 50:50 with 0.05M phosphate buffer) to which were added the test mixtures and a lactobacillus or bifidobacterium strain. For each of the combinations, parallel tubes were prepared with one set being inoculated with Bifidobacterium spp or Lactobacillus spp. All mixtures were then incubated for up to 24 hours and bacterial numbers enumerated.

The test system of the next test is Bifidobacterium. Briefly: Stimulation of growth: enumeration of bifidobacterium in vitro in human faecal homogenate / WC broth. The class given is cell-based, Bifidobacterium spp. The conditions noted are these: incubated up to 24 hours. As for the experimental part:
as §1

With `OC[C@H]1O[C@@H](O[C@H]2[C@H](O)[C@@H](O)[C@@H](O[C@]3(CO)O[C@H](CO)[C@@H](O)[C@@H]3O)O[C@@H]2CO)[C@H](O)[C@@H](O)[C@H]1O` [C2, Lactosucrose], the results for the “Bacterial numbers (CFU/ml)” value in the test on Lactobacterium (1% test substance/mixture) and in the test with Bifidobacterium (1% test substance/mixture) were 1.1 × 10^6 CFU/ml and 1.1 × 10^7 CFU/ml, respectively.
For `CC[C@H](CC[C@@H](C)[C@H]1CC[C@H]2[C@@H]3CC=C4C[C@@H](O)CC[C@]4(C)[C@H]3CC[C@]12C)C(C)C` [C5, β-Sitosterol], the “Bacterial numbers (CFU/ml)” value in the test with Lactobacterium (1% test substance) was 4.4 × 10^5 CFU/ml; in the test with Bifidobacterium (1% test substance), 3.3 × 10^6 CFU/ml.
In the same order, the values of `CC[C@H](CC[C@@H](C)[C@H]1CC[C@H]2[C@@H]3CC[C@H]4C[C@@H](O)CC[C@]4(C)[C@H]3CC[C@]12C)C(C)C` [C6, β-Sitostanol] are 4.4 × 10^5 CFU/ml and 2.4 × 10^6 CFU/ml.
In the same order, the values of `CCCCCCCCCCCCCCCC(=O)O[C@H]1CC[C@@]2(C)C(=CC[C@H]3[C@@H]4CC[C@H]([C@H](C)CC[C@@H](CC)C(C)C)[C@@]4(C)CC[C@@H]32)C1` [C7, β-Sitosterolpalmitate] are 4.4 × 10^5 CFU/ml and 2.7 × 10^6 CFU/ml.
In the same order, the values of `CCCCCCCCCCCCCCCCCC(=O)O[C@H]1CC[C@@]2(C)[C@@H](CC[C@@H]3[C@@H]2CC[C@]2(C)[C@@H]([C@H](C)CC[C@@H](CC)C(C)C)CC[C@@H]32)C1` [C8, β-Sitostanolstearate] are 4.5 × 10^5 CFU/ml and 3.2 × 10^6 CFU/ml.
In the case of Betaglucan [C4], the results for the “Bacterial numbers (CFU/ml)” value in the test on Lactobacterium (1% test substance/mixture) and in the test on Bifidobacterium (1% test substance/mixture) were 1.1 × 10^6 CFU/ml and 1.2 × 10^7 CFU/ml, respectively.
In the same order, the values of Lactolin [C3] are 1.5 × 10^6 CFU/ml and 1.6 × 10^7 CFU/ml.

The record behind these values is US20080241263A1, “Oral and/or Topical Compositions Comprising Prebiotics and Sterols” (priority 2004, published 2008).
